Results reported in patent US9150580B2, “Substituted imidazopyridines and the use thereof” (BAYER INTELLECTUAL PROPERTY GMBH, priority 2011, dated 2015).
Where a name gives a salt, the structure may show the parent alone.

Tests used:
aorta rings = assay: Vasorelaxant action in vitro (phenylephrine-contracted rabbit aorta rings); settings: Oryctolagus cuniculus, phenylephrine-induced contraction, organ bath 37° C., 0.1% DMSO, read-out: IC50 (concentration needed to reduce the magnitude of the control contraction by 50%)
Procedure: B-1. Vasorelaxant Action In Vitro
Rabbits are stunned by a blow to the neck and exsanguinated. The aorta is removed, freed from adhering tissue and divided into rings of a width of 1.5 mm. The rings are placed individually under an initial tension in 5 ml organ baths with Krebs-Henseleit solution which is at 37° C., is gassed with carbogen and has the following composition (in each case mM): sodium chloride 119; potassium chloride: 4.8; calcium chloride dihydrate: 1; magnesium sulfate heptahydrate: 1.4; potassium dihydrogenphosphate: 1.2; sodium bicarbonate: 25; glucose: 10. The contractile force is determined with Statham UC2 cells, amplified and digitalized using A/D transducers (DAS 1802 HC, Keithley Instruments Munich), and recorded in parallel on linear recorders. To obtain a contraction, phenylephrine is added to the bath cumulatively in increasing concentration. After several control cycles, the substance to be investigated is added in each further run in increasing dosage in each case, and the height of the contraction achieved is compared with the height of the contraction reached in the last preceding run. This is used to calculate the concentration needed to reduce the magnitude of the control value by 50% (IC50 value). The standard administration volume is 5 μl; the DMSO content in the bath solution corresponds to 0.1%.

[1] = molecular target: T1, recombinant guanylate cyclase reporter cell line (Rattus norvegicus, UniProt P19686+P20595); assay: Effect on a recombinant guanylate cyclase reporter cell line; assay type: cell-based; settings: recombinant guanylate cyclase reporter cell line (Wunder et al. 2005)
T1 construct: expressed in transfected cells
T1 sequence (P19686 1-690): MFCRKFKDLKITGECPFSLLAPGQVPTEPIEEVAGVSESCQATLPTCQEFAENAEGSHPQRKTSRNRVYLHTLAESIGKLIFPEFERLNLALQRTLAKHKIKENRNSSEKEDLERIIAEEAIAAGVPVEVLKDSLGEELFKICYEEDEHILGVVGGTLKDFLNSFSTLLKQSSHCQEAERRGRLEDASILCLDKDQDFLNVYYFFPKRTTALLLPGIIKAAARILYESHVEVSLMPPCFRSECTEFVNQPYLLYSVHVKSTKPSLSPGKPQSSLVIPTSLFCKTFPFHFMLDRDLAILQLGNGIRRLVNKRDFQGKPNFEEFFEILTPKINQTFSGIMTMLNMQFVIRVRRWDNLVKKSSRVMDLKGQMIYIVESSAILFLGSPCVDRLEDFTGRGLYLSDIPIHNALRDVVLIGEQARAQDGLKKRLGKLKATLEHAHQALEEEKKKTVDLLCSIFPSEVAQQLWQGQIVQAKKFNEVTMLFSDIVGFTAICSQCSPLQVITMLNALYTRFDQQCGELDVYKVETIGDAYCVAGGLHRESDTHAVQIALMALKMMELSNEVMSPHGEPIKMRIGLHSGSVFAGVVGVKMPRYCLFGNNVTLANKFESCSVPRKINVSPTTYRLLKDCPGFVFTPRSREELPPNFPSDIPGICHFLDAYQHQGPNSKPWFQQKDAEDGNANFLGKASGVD
T1 sequence (P20595 1-619): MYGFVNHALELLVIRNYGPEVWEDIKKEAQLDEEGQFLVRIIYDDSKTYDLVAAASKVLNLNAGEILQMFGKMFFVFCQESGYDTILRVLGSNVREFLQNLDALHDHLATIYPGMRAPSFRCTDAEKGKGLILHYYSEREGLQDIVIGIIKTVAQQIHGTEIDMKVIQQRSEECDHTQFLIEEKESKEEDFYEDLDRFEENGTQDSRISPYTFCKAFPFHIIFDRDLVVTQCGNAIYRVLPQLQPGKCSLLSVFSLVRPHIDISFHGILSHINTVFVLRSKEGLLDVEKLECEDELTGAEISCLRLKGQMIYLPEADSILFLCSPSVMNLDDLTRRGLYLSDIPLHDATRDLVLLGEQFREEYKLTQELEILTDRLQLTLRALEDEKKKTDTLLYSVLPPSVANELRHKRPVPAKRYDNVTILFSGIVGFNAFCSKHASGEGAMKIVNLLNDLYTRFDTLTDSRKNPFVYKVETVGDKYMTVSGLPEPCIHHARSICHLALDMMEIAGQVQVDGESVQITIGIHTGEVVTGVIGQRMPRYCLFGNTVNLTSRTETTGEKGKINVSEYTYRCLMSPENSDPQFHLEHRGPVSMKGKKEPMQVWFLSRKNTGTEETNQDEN
Procedure: B-2. Effect on a Recombinant Guanylate Cyclase Reporter Cell Line
The cellular activity of the compounds according to the invention is determined using a recombinant guanylate cyclase reporter cell line, as described in F. Wunder et al., Anal. Biochem. 339, 104-112 (2005).

Structure (SMILES): Nc1nc(N)nc(-c2nc(Cc3ccccc3F)n3ncccc23)n1 [Example 1, 6-[7-(2-Fluorobenzyl)imidazo[1,5-b]pyridazin-5-yl]-1,3,5-triazine-2,4-diamine formate]
- IC50 (aorta rings): 130 nM
- MEC (minimum effective concentration) [1]: 0.03 µM

Structure (SMILES): CCOC(=O)Nc1c(N)nc(-c2nc(Cc3ccccc3F)n3ncccc23)nc1N [Example 5, Ethyl {4,6-diamino-2-[7-(2-fluorobenzyl)imidazo[1,5-b]pyridazin-5-yl]pyrimidin-5-yl}carbamate formate]
- IC50 (aorta rings): 200 nM
- MEC (minimum effective concentration) [1]: 0.3 µM

Structure (SMILES): CCN(C(=O)OC)c1c(N)nc(-c2nc(Cc3ccccc3F)n3ncccc23)nc1N [Example 8, Methyl {4,6-diamino-2-[7-(2-fluorobenzyl)imidazo[1,5-b]pyridazin-5-yl]pyrimidin-5-yl}ethylcarbamate formate]
- IC50 (aorta rings): 152 nM
- MEC (minimum effective concentration) [1]: 0.1 µM

Structure (SMILES): Nc1nc(-c2nc(Cc3ccccc3F)n3ncccc23)nc(N)c1NC(=O)OC1CCC1 [Example 11, Cyclobutyl {4,6-diamino-2-[7-(2-fluorobenzyl)imidazo[1,5-b]pyridazin-5-yl]pyrimidin-5-yl}carbamate formate]
- IC50 (aorta rings): 422 nM
- MEC (minimum effective concentration) [1]: 0.3 µM

Structure (SMILES): COC(=O)N(Cc1ccccc1)c1c(N)nc(-c2nc(Cc3ccccc3F)n3ncccc23)nc1N [Example 15, Methyl benzyl{4,6-diamino-2-[7-(2-fluorobenzyl)imidazo[1,5-b]pyridazin-5-yl]pyrimidin-5-yl}carbamate formate]
- IC50 (aorta rings): 171 nM
- MEC (minimum effective concentration) [1]: 0.01 µM

Structure (SMILES): COC(=O)N(Cc1cccc(F)c1)c1c(N)nc(-c2nc(Cc3ccccc3F)n3ncccc23)nc1N [Example 19, Methyl {4,6-diamino-2-[7-(2-fluorobenzyl)imidazo[1,5-b]pyridazin-5-yl]pyrimidin-5-yl}(3-fluorobenzyl)carbamate formate]
- IC50 (aorta rings): 81 nM
- MEC (minimum effective concentration) [1]: 0.1 µM
